The text below walks through data of patent US9693987B2, “Methods for treating cancers using oral formulations of cytidine analogs” (CELGENE CORPORATION, priority 2011, dated 2017).

Series [1] has as its system Ninety-two cancer cell lines. Nature of the series: In vitro modeling of clinical dosing schema, AZA with CBDCA or ABX, cancer cell line panel. The class given is cell-based. Conditions: other experiments; some cell lines. Here is the method:
DNA hypomethylation (e.g., LINE-1, p16) was measured 72 hours after AZA treatment alone or in combination with CBDCA or ABX. p16 (mRNA) re-expression was determined 72 hours after AZA treatment alone or in combination with CBDCA or ABX. Ninety-two cancer cell lines were tested in order to identify specific tumor types that become sensitized to CBDCA or ABX after treatment with AZA (bladder cancer n=8; head and neck cancer n=8, breast cancer n=21; lung cancer n=35; pancreatic cancer n=7; ovarian cancer n=7; and melanoma n=6).

The next series relates to Nasopharyngeal cancer. Put plainly: Clinical study Part 1, oral azacitidine alone or with CBDCA or ABX, tumor response. The class given is in vivo, human. The settings on record: Part 1 Arm C.
The subject of series [2] is DNMT1. Put plainly: DNMT1 western blotting, MDA-MB-231 cells in vitro. The class given is cell-based. Here is the method: (§1) The effects of AZA dose and schedule (short-term vs. extended) on pharmacodynamic markers such as DNMT1 depletion, DNA methylation, and DNA damage were evaluated in MDA-MB-231 breast cancer cells in vitro and in vivo. For in vitro experiments, MDA-MB-231 cells were treated daily with 0.1 or 0.3 μM AZA for up to 12 days, and harvested at various times during treatment, as well as up to 12 days following treatment. For in vivo studies, MDA-MB-231 tumor-bearing mice were dosed (ip) with 1 or 3 mg/kg AZA daily for 3, 7, 14, 21, or 28 days and tumors were harvested during and at several time points after the dosing period. DNA and cell lysates were prepared (from cell pellets or xenograft tumors) for DNA methylation analysis (LINE-1 or EpiTech Methyl qPCR assay) and DNMT1/γH2AX western blotting, respectively.
A general note: In western blotting, separated proteins are transferred to a membrane and probed.

Series [3] deals with DNMT1. Nature of the series: DNMT1 western blotting, MDA-MB-231 xenograft tumors. It is filed as in vivo, mice. The protocol:
as §1

Series [4] relates to DNA methylation (LINE-1 and gene-specific). Put plainly: DNA methylation analysis (LINE-1 or EpiTech Methyl qPCR), MDA-MB-231 cells in vitro. The class given is cell-based. The protocol:
as §1

Series [5] shares this test system. Put plainly: DNA methylation analysis (LINE-1 or EpiTech Methyl qPCR), MDA-MB-231 xenograft tumors. The class given is in vivo. The settings on record: MDA-MB-231 tumors in mice, 1 or 3 mg/kg AZA ip daily; further reduction with additional days of dosing. Here is the method:
as §1
In general terms: Quantitative PCR measures a nucleic acid by following its amplification.

The subject of a further series is γH2AX. Put plainly: γH2AX western blotting (DNA damage), MDA-MB-231 xenograft tumors. The class given is in vivo. The settings on record: MDA-MB-231 tumor-bearing mice. The protocol: as §1
The subject of another series is LINE-1 methylation. Put plainly: DNA methylation (LINE-1) in PBMC DNAs from patients. It is filed as in vivo, human. Conditions: patients of Example 1, Arm C, 200 mg oral AZA; Days 1, 8 and 15 of 21-day cycle. Here is the method:
(§2) In one embodiment, PBMC DNA was used for assessing changes in DNA methylation, using assays such as LINE-1 methylation, %5mdC mass spec, Infinium® Methylation27 Array, and Infinium® Methylation450 Array. In one study, DNA methylation (LINE-1) in PBMC DNAs from patients in clinical studies described in Example 1, dosed with 200 mg oral AZA alone or in combination with CDBCA or ABX, was measured on Days 1, 8, and 15 of 21-day cycle. […] In one study, %5mdC in PBMC DNAs from patients in clinical studies described in Example 1, dosed with 200 mg oral AZA alone or in combination with CDBCA or ABX, was measured on Days 1, 8, and 15 of 21-day cycle. In one study, methylation levels were measured on Days 1, 8, and 15 of 21-day cycle using Infinium® Methylation27 Array (patients dosed with 200 mg oral AZA alone or in combination with CDBCA or ABX) and density profiles of average methylation levels were analyzed. […] In another study, methylation levels were measured using Infinium® Methylation450 Array (patients dosed with 300 mg oral AZA alone or in combination with CDBCA or ABX) and density profiles of average methylation levels were analyzed, as well as % change of hypermethylated loci (beta>0.7) upon treatment.

Series [6] relates to DNA methylation, hypermethylated loci (beta>0.7). Put plainly: Infinium Methylation27 Array, PBMC DNA of patients. It is filed as in vivo, human. Conditions: patients dosed with 200 mg oral AZA alone (Arm C) or with CBDCA (Arm A) or ABX (Arm B); Days 1, 8, 15 of 21-day cycle. The protocol: DNA methylation is employed as a biomarker to monitor responses in patients treated with azacitidine in the clinical studies described herein. Analysis is performed with an Infinium Assay (commercially available from Illumina, Inc., San Diego, Calif.). The Infinium Assay combined with BeadChips allows large-scale interrogation of variations in the human genome. For example, the Infinium HumanMethylation27 BeadChip enables interrogation of 27,578 CpG loci, covering over 14,000 genes. […]
The assay for methylation is used to detect methylation status at individual CpG loci by typing bisulfite-converted DNA. […] Blood samples were collected and DNA methylation was analyzed in parallel. In other embodiments, bone marrow samples are collected and DNA methylation analyzed in parallel.
In one embodiment, PBMC DNA was used for assessing changes in DNA methylation, using assays such as LINE-1 methylation, %5mdC mass spec, Infinium® Methylation27 Array, and Infinium® Methylation450 Array. In one study, DNA methylation (LINE-1) in PBMC DNAs from patients in clinical studies described in Example 1, dosed with 200 mg oral AZA alone or in combination with CDBCA or ABX, was measured on Days 1, 8, and 15 of 21-day cycle. […]

For a further series, the system named is DNA methylation in PBMCs. Nature of the series: DNA hypomethylation in PBMCs of patients (summary). The class given is in vivo, human. Here is the method:
as §2

Series [7] can be described thus: PK exposure of AZA in patients. It is filed as in vivo. The settings on record: human, plasma; oral AZA, patients of the clinical study; read-out: AUCinf of patients in whom decreases in DNA methylation were observed.
Description: For oral azacitidine, CBDCA, and ABX (administered alone and in combination), the following plasma PK parameters are assessed: (1) maximum observed concentration in plasma (Cmax); (2) area under the concentration-time curve (AUC); (3) time to maximum concentration (tmax); (4) terminal half-life (t1/2); (5) apparent total body clearance (CL/F); and (6) apparent volume of distribution (Vz/F). To evaluate the PD effects of oral azacitidine in blood, plasma, and tumor tissue, the following endpoints are collected: (1) change from baseline (Cycle 1 Day 1 pre-dose) in DNA methylation (global and gene-specific assays) in whole blood and tumor tissue (as available in Part 1); (2) reduction from baseline (Cycle 1 Day 1 predose) in DNMT1 protein levels in tumor tissue (as available in Part 1).
For a further series, the system named is higher-risk MDS. The settings on record: Phase III study, administered subcutaneously, subjects with higher-risk MDS; cited from earlier work.

Excerpt for Nasopharyngeal cancer: The study was an open-label, 3-arm, multi-center, dose-escalation study of oral azacitidine in combination with either CBDCA (Arm A), ABX (Arm B), or as a single agent (Arm C) in subjects with relapsed or refractory solid tumors (Part 1). Subjects were assigned to each study Arm at the discretion of the investigator. A minimum of 6 subjects were assigned to each study Arm when a dose level (DL) became open for enrollment. If one (1) or zero (0) out of six (6) subjects in a DL experienced dose limiting toxicity (DLT), the dose of oral azacitidine was escalated in the successive DL. A limited number of oral azacitidine DLs were explored to arrive at a recommended Part 2 dose (RP2D) of oral azacitidine for each study Arm. The RP2D may be the MTD, MAD, or a lower dose depending on the tolerability, PK, and PD observed. Part 1 was followed by expansion cohorts at the RP2D in specific tumor types (Part 2). Approximately 60 subjects were enrolled in Part 1, and approximately 100 subjects were enrolled in Part 2. Safety, efficacy, pharmacokinetics, and pharmacodynamics data were evaluated.
Subjects are evaluated for tumor response after Cycle 2 and every other Cycle thereafter. […]
In one embodiment, in Part 1, Arm C of the study, 5-azacytidine was dosed from Day 1 to Day 21, in a 21-day cycle (continuous). Safety and PD were analyzed. […]

Consider `Nc1ncn([C@H]2C[C@H](O)[C@@H](CO)O2)c(=O)n1` [DAC, 5-aza-2′-deoxycytidine], for which, in series [1], the “Interaction of DAC (decitabine) priming with ABX” value was “antagonism” and the “Interaction of DAC (decitabine) priming with CBDCA” value is reported as “additivity or synergy”.
For `Nc1ncn([C@@H]2O[C@H](CO)[C@@H](O)[C@H]2O)c(=O)n1` [AZA, 4-amino-1-β-D-ribofuranosyl-1,3,5-triazin-2(1H)-one], the “Time on Study” value in the series on Nasopharyngeal cancer (AZA dose 300 mg single agent, nasopharyngeal patient) was over 3 mo. Moreover, the Tumor response entry in the series with Nasopharyngeal cancer (5-azacytidine 300 mg Day 1 to Day 21, 21-day cycle, nasopharyngeal cancer) is on record as “Partial responses”. In addition, the “Time for DNMT1 protein levels to return to basal levels after AZA treatment was halted” value with DNMT1 [2] (MDA-MB-231 cells in vitro) and in the series on DNMT1 [3] (MDA-MB-231 tumors in mice) was 3 to 4 days throughout. The DNMT1 protein level entry with DNMT1 [2] (MDA-MB-231 cells treated daily with 0.1 or 0.3 μM AZA for up to 12 days) is on record as “dose-dependent depletion”; with DNMT1 [3] (MDA-MB-231 tumor-bearing mice, 1 or 3 mg/kg AZA ip daily), “dose-dependent depletion”. In the series on DNMT1 [3] (MDA-MB-231 tumor-bearing mice, 1 or 3 mg/kg AZA ip), the “Time to DNMT1 protein depletion post in vivo dose” value was at most 8 h. Further, the “Time for DNA methylation to return to basal levels upon AZA removal” value in [4] (MDA-MB-231 cells in vitro) is recorded as at most 8 days. Besides, the “DNA methylation (LINE-1 and gene-specific)” value is “dose-dependent decrease” in [4] (MDA-MB-231 cells, 0.1 or 0.3 μM AZA daily, further reduction with additional days of dosing) and “dose-dependent decrease” in series [5]. Besides, the “Days of dosing until DNA damage was observed in tumors” value in the series on γH2AX (1 mg/kg AZA ip daily) is 21 days; with γH2AX (3 mg/kg AZA ip daily) it was 14 days. Besides, the “DNA methylation (LINE-1) in PBMC DNAs” value with LINE-1 methylation was “Decreases in LINE-1 methylation were observed for two patients”. In addition, in series [6], the “DNA methylation in PBMCs upon treatment (hypermethylated loci, beta>0.7)” value is reported as “decreases in hypermethylated loci”. Besides, the “Patients with DNA hypomethylation in PBMCs / patients analyzed” value is given as 5/6 with DNA methylation in PBMCs (200 mg oral AZA alone (Arm C) or with ABX (Arm B) or CBDCA (Arm A)) and 3/3 in the series with DNA methylation in PBMCs (300 mg oral AZA alone (Arm C) or with CBDCA (Arm A)). The AUC(0-inf) in [7] is over 350 ng·h/mL. The “Survival and time to AML transformation or death” value in the series with higher-risk MDS is “significantly prolonged survival”.
